“And” between values parts separate entries of the source, which are not always exact repeats. Identical values can stand only once. “Also recorded” adds a separate entry of the source. Where a SMILES comes first, the peptide text is derived from it. [ ]: non-standard residue; d: D form. Hyp = O=C(O)[C@@H]1C[C@@H](O)CN1
Tested on: human PBMCs
Experiment: PBMC cell counts (total, live, viability; trypan blue, Countess) with and without LPS and test articles (Example 9)
Assay type: cell-based
Summary of the method: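 Human PBMCs were pretreated 2 h with test articles (0.001–100 uM) or 0.5% DMSO vehicle, then given LPS at 5 ug/ml or no LPS, in triplicate. After 24 hr, total and live cells and viability were counted by 1:1 trypan blue staining on an automated counter.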

[1] = PBMC + LPS(5 ug/ml), test article 100 uM, Mean
[2] = PBMC + LPS(5 ug/ml), test article 100 uM, single replicates
[3] = PBMC + compound 0.01 uM, no LPS, 24 hr
[4] = PBMC + compound 0.1 uM, no LPS, 24 hr
[5] = PBMC + compound 1 uM, no LPS, 24 hr
[6] = PBMC + compound 10 uM, no LPS, 24 hr
[7] = PBMC + compound 100 uM, no LPS, 24 hr
[8] = PBMC + test article 0.01 uM, no LPS, Mean
[9] = PBMC + test article 0.01 uM, no LPS, single replicates
[10] = PBMC + test article 0.1 uM, no LPS, Mean
[11] = PBMC + test article 0.1 uM, no LPS, single replicates
[12] = PBMC + test article 1 uM, no LPS, Mean
[13] = PBMC + test article 1 uM, no LPS, single replicates
[14] = PBMC + test article 10 uM, no LPS, Mean
[15] = PBMC + test article 10 uM, no LPS, single replicates
[16] = PBMC + test article 100 uM, no LPS, Mean
[17] = PBMC + test article 100 uM, no LPS, single replicates
[18] = PBMC without LPS, test article 0.01 uM, Mean
[19] = PBMC without LPS, test article 0.01 uM, single replicates
[20] = PBMC without LPS, test article 0.1 uM, Mean
[21] = PBMC without LPS, test article 0.1 uM, single replicates
[22] = PBMC without LPS, test article 1 uM, Mean
[23] = PBMC without LPS, test article 1 uM, single replicates
[24] = PBMC without LPS, test article 10 uM, Mean
[25] = PBMC without LPS, test article 10 uM, single replicates
[26] = PBMC without LPS, test article 100 uM, Mean
[27] = PBMC without LPS, test article 100 uM, single replicates

CC(C)C[C@H](NC(=O)CNC(=O)[C@H](CC(=O)O)NC(=O)[C@H](CCC(N)=O)NC(=O)CNC(=O)[C@@H]1C[C@@H](O)CN1)C(=O)N[C@@H](C)C(=O)NCC(=O)N1CCC[C@H]1C(=O)N[C@@H](CCCCN)C(=O)O [YY-101] (H-[Hyp]GQDGLAGPK-OH; N-terminus and C-terminus assumed)
Live cell [1]: 5.8 10^5/ml | Total cell count [1]: 7.8 10^5/ml | Live cell [2]: 6.3 10^5/ml and 6.2 10^5/ml and 5.0 10^5/ml | Total cell count [2]: 8.7 10^5/ml and 8.8 10^5/ml and 5.8 10^5/ml | Viability [2]: 73.0% and 70.0% and 87.0% | Live cell [3]: 5.0 ± 0.2 10^5/ml | Total cell [3]: 5.9 ± 0.4 10^5/ml | Live cell [4]: 5.1 ± 0.2 10^5/ml | Total cell [4]: 6.1 ± 0.8 10^5/ml | Live cell [5]: 5.5 ± 0.0 10^5/ml | Total cell [5]: 6.1 ± 0.2 10^5/ml | Live cell [6]: 6.3 ± 0.2 10^5/ml | Total cell [6]: 7.4 ± 0.3 10^5/ml | Live cell [7]: 6.7 ± 0.3 10^5/ml | Total cell [7]: 7.8 ± 0.5 10^5/ml | Live cell [8]: 5.0 10^5/ml | Live cell (10^5/ml) [8]: 5.0 10^5/ml | Live cell, Mean [8]: 5.0 10^5/ml | Live cell (PBMC + test article 0.01 uM, no LPS, individual replicates (1st, 2nd)): 5.2 10^5/ml and 4.8 10^5/ml | Live cell [9]: 5.2 10^5/ml and 4.8 10^5/ml | Live cell (10^5/ml) [9]: 5.2 10^5/ml and 4.8 10^5/ml | Live cell (PBMC + test article 0.01 uM, no LPS, single replicates (1st, 2nd)): 5.2 10^5/ml and 4.8 10^5/ml | Live cell [10]: 5.1 10^5/ml | Live cell (10^5/ml) [10]: 5.1 10^5/ml | Live cell, Mean [10]: 5.1 10^5/ml | Live cell (PBMC + test article 0.1 uM, no LPS, individual replicates (1st, 2nd)): 4.4 10^5/ml and 5.8 10^5/ml | Live cell [11]: 4.4 10^5/ml and 5.8 10^5/ml | Live cell (10^5/ml) [11]: 4.4 10^5/ml and 5.8 10^5/ml | Live cell (PBMC + test article 0.1 uM, no LPS, single replicates (1st, 2nd)): 4.4 10^5/ml and 5.8 10^5/ml | Live cell [12]: 5.5 10^5/ml | Live cell (10^5/ml) [12]: 5.5 10^5/ml | Live cell, Mean [12]: 5.5 10^5/ml | Live cell (PBMC + test article 1 uM, no LPS, individual replicates (1st, 2nd)): 5.5 10^5/ml | Live cell [13]: 5.5 10^5/ml | Live cell (10^5/ml) [13]: 5.5 10^5/ml | Live cell (PBMC + test article 1 uM, no LPS, single replicates (1st, 2nd)): 5.5 10^5/ml | Live cell [14]: 6.3 10^5/ml | Live cell (10^5/ml) [14]: 6.3 10^5/ml | Live cell, Mean [14]: 6.3 10^5/ml | Live cell (PBMC + test article 10 uM, no LPS, individual replicates (1st, 2nd)): 6.4 10^5/ml and 6.1 10^5/ml | Live cell [15]: 6.4 10^5/ml and 6.1 10^5/ml | Live cell (10^5/ml) [15]: 6.4 10^5/ml and 6.1 10^5/ml | Live cell (PBMC + test article 10 uM, no LPS, single replicates (1st, 2nd)): 6.4 10^5/ml and 6.1 10^5/ml | Live cell [16]: 6.7 10^5/ml | Live cell (10^5/ml) [16]: 6.7 10^5/ml | Live cell, Mean [16]: 6.7 10^5/ml | Live cell (PBMC + test article 100 uM, no LPS, individual replicates (1st, 2nd)): 6.4 10^5/ml and 7.0 10^5/ml | Live cell [17]: 6.4 10^5/ml and 7.0 10^5/ml | Live cell (10^5/ml) [17]: 6.4 10^5/ml and 7.0 10^5/ml | Live cell (PBMC + test article 100 uM, no LPS, single replicates (1st, 2nd)): 6.4 10^5/ml and 7.0 10^5/ml | Live cell (PBMC without LPS, 0.01 uM, Mean): 5.0 10^5/ml | Live cell (PBMC without LPS, 0.01 uM, single replicates): 5.2 10^5/ml and 4.8 10^5/ml | Live cell (PBMC without LPS, 0.1 uM, Mean): 5.1 10^5/ml | Live cell (PBMC without LPS, 0.1 uM, single replicates): 4.4 10^5/ml and 5.8 10^5/ml | Live cell (PBMC without LPS, 1 uM, Mean): 5.5 10^5/ml | Live cell (PBMC without LPS, 1 uM, single replicates): 5.5 10^5/ml | Live cell (PBMC without LPS, 10 uM, Mean): 6.3 10^5/ml | Live cell (PBMC without LPS, 10 uM, single replicates): 6.4 10^5/ml and 6.1 10^5/ml | Live cell (PBMC without LPS, 100 uM, Mean): 6.7 10^5/ml | Live cell (PBMC without LPS, 100 uM, single replicates): 6.4 10^5/ml and 7.0 10^5/ml | Live cell [18]: 5.0 10^5/ml | Total cell count [18]: 5.9 10^5/ml | Live cell [19]: 5.2 10^5/ml and 4.8 10^5/ml | Total cell count [19]: 6.3 10^5/ml and 5.5 10^5/ml | Viability [19]: 83.0% and 87.0% | Live cell [20]: 5.1 10^5/ml | Total cell count [20]: 6.1 10^5/ml | Viability [20]: 84.0% | Live cell [21]: 4.4 10^5/ml and 5.8 10^5/ml | Total cell count [21]: 5.2 10^5/ml and 6.9 10^5/ml | Viability [21]: 84.0% | Live cell [22]: 5.5 10^5/ml | Total cell count [22]: 6.1 10^5/ml | Live cell [23]: 5.5 10^5/ml | Total cell count [23]: 5.9 10^5/ml and 6.3 10^5/ml | Viability [23]: 92.0% and 87.0% | Live cell [24]: 6.3 10^5/ml | Total cell count [24]: 7.4 10^5/ml | Live cell [25]: 6.4 10^5/ml and 6.1 10^5/ml | Total cell count [25]: 7.6 10^5/ml and 7.1 10^5/ml | Viability [25]: 85.0% and 87.0% | Live cell [26]: 6.7 10^5/ml | Total cell count [26]: 7.8 10^5/ml | Live cell [27]: 6.4 10^5/ml and 7.0 10^5/ml | Total cell count [27]: 7.3 10^5/ml and 8.2 10^5/ml | Viability [27]: 88.0% and 85.0% | viability / total number of PBMCs (in words) (up to 100 μM): didn't affect the basal levels of most of cytokine/chemokine production or the viability of hPBMCs; also recorded: didn't affect any viability or the total number of PBMCs | which treatments consistently affected the total and live number of PBMCs or the percent viability (in words) (up to 100 μM, 24-hour treatment): none of

— patent publication US20230146455A1, “TREATMENT OF INFLAMMATORY DISEASES WITH PEPTIDES AND PHARMACEUTICAL COMPOSITIONS” (Yuyu Pharma, Inc., priority 2020, published 2023)
